assay: Second-order rate of Ferricyanide -mediated oxidation using spectrophotometric method; type: ADME

Row | SMILES | Ko
1 | CCCCCCCCOC(=O)C(Cc1c[nH]c2ccccc12)NC(=O)c1ccc[n+](C)c1 (centres undefined) | 7.61 M⁻¹ s⁻¹
2 | COC(=O)C(Cc1c[nH]c2ccccc12)NC(=O)c1ccc[n+](C)c1 (centres undefined) | 13.8 M⁻¹ s⁻¹
3 | CCOC(=O)C(Cc1c[nH]c2ccccc12)NC(=O)c1ccc[n+](C)c1 (centres undefined) | 13.5 M⁻¹ s⁻¹
4 | C[n+]1cccc(C(=O)NC(Cc2c[nH]c3ccccc23)C(=O)OC2CCCCC2)c1 (centres undefined) | 12.2 M⁻¹ s⁻¹
